Results reported in patent publication US10875891B2, “Short synthetic peptide and uses thereof” (MacKay Memorial Hospital, priority 2018, dated 2020).
“Also recorded” adds a separate entry of the source. Where no end group is shown, it is not given here. [ ]: non-standard residue; d: D form.

Assays:
[1] = test system: Murine psoriasis vulgaris-like skin inflammation model; assay: IMQ-induced psoriasis vulgaris-like skin inflammation model, keratinocyte proliferation by BrdU incorporation; type: in vivo, BALB/c mice; settings: 25 μM with IMQ cream, day 6; IMQ control 24.5±2.0; FIG. 9 panel B
Method: (§1) BALB/c mice (8-weeks old females; n=42) were used in this model system. […] Accordingly, in this model, each BALB/c mice received a daily topical dose (62.5 mg) of commercially available IMQ cream (Imiquimod Cream 5% w/w, Aldara™) on the shaved back and the right ear for 6 consecutive days (n=6); whereas the control mice (normal group) were treated with a control cream (n=6). For treatment, each test peptide was mixed with IMQ cream to give a concentration of 25 μM (n=6 per group). Keratinocyte proliferation was determined by BrdU incorporation. BrdU (Sigma-Aldrich) was reconstituted in DMSO as a stock solution of 80 mM. 10 μl of BrdU mixed with 90 μl of PBS was intraperitoneally injected into each mouse for 24 hr prior to euthanasia.
(§2) Slides were blocked with 10% goat serum for 60 min and then incubated with primary antibody against BrdU (1:50 dilution; GTX42641) for 3 hr at RT. The slides were then incubated with peroxidase-labeled donkey immunoglobulin for 30 min and then incubated with chromogen substrate (3,3′-diaminobenzidine) for 2 min before counterstaining with hematoxylin. Quantification was estimated based on high quality images (1208×960 pixels buffer) captured using a Nikon Eclipse 80i light microscope.

Murine dry eye model [2] = assay: Dry eye animal model, tear production by phenol red thread test; type: in vivo, C57BL/6 mice; settings: treated for 4 days; P<0.01 versus vehicle treatment; FIG. 4
Method: (§3) C57BL/6 mice (7-8 weeks old, each weighted about 18 to 25 g) were used in this model system. All mice were maintained in the animal facility in accordance with the procedures approved by Mackay Memorial Hospital Review Board (Taiwan, R.O. C.). All animal experimental procedures were conducted according to the ARVO Statement for the Use of Animals in Ophthalmic and Vision Research.
(§4) Dry eyes were induced by placing mice in a controlled environment chamber (CEC) for 14 days in accordance with procedures previously described by Barabino et al (IVOS (2005) 46(8), 2766-2771). Mice placed in the CEC were exposed to a condition, in which relative humidity (RH) was maintained at <25%, temperature at 20-22° C., and airflow at about 15 L/min, for 12 hours per day. Control mice were kept in a normal environment (RH>50%, no air flow, temperature of 20-22° C.) for the same duration.
(§5) A common artificial tear formulation, 1% carboxymethylcelllulose (CMC) dissolved in balanced salt solution (BSS) was used as the peptide vehicle. Peptide (50 μM) or 1% CMC vehicle was topically administered to eyes three times a day, for 4 days.
Tear production was measured with phenol red-impregnated cotton threads (Zone-Quick; Oasis, Glendora, Calif.). The validity of this test in mice was performed as previously described (Dursun et al., Invest Ophthalmol Vis Sci. 2002; 43:632-8). The threads were held with jeweler forceps and placed in the lateral canthus for 60 seconds. The tear production expressed in millimeters of thread wet by the tear and turned red.

myeloma RPMI 8226 cell = assay: MTT assay, cell viability; type: cell-based, human; settings: 20 μM peptide, 24 h, serum-free RPMI1640; FIGS. 1-2
Method: The multiple myeloma line RPMI8226 or […] Raw264.7 macrophages were cultivated in complex medium (RPMI1640) supplemented with 10% (vol/vol) heat-inactivated fetal calf serum (Invitrogen), 50 μg/mL penicillin, 50 μg/mL streptomycin, and 2 mM L-glutamine at 37° C. in a 5% CO2 atmosphere
RPMI8226 cells or U266 cells were cultured in serum-free RPMI1640 medium for 24 h, and then cells seeded in 48-well culture plates (3×10^5 cells/well) and cultured in 0.5 ml fresh serum-free RPMI1640 medium containing 20 μM peptide for further 24 h. The cell viability was determined by the MTT assay.
50 μL of the MTT stock solution (5 mg MTT dissolved in 1 ml of sterile PBS) was added to each well, and 50 μL of the MTT stock solution was added to 500 μL of medium alone and used as a negative control. Each sample was Incubates at 37° C. for 4 hours. Aliquots (450 μl) from each sample were taken to a new well of 48-well culture plate, adding 100 μL DMSO, mixing thoroughly using the pipette and reacted at 37° C. for 20 min and absorbance was measured at 570 nm.

Murine dry eye model [3] = assay: Dry eye animal model, fluorescein eye stain test for corneal injuries; type: in vivo, C57BL/6 mice; settings: peptide 50 μM topically three times a day for 4 days; for reduction in mean corneal fluorescein staining score compared with vehicle treated control mice: FIG. 3 panel B
Method: as §3, §4, §5
Corneal epithelial injury was determined by staining with topical fluorescein (100 mg/ml or 10%; FLUORESCITE™, Alcon Laboratories). For dosing, topical fluorescein (0.6 μL of 0.5% sodium fluorescein dissolved in 4.4 μL BSS per eye) was applied via a micro-pipette to the lateral canthus for 15 sec. Corneal fluorescein staining was examined with a slit-lamp biomicroscope under cobalt blue light and photographed with a digital camera. Data is presented as mean±SD. Dye staining of the cornea was scored in a blinded manner as follows: score 0 for no punctuate staining; score 1 when less than one third of the cornea was stained; score 2 when two thirds or less was stained; and score 3 when more than two thirds was stained.

[4] = test system: Murine psoriasis vulgaris-like skin inflammation model; assay: IMQ-induced psoriasis vulgaris-like skin inflammation model, H&E histology of back skin; type: in vivo, BALB/c mice; settings: 25 μM with IMQ cream, 6 days; IMQ control 122±10.5; FIG. 8 panel B
Method: as §1
Back skin of the mouse was fixed overnight in 4% paraformaldehyde, dehydrated with graded ethanol series, and paraffinized. Fixed samples were deparaffinized in xylene and rehydrated in a graded series of ethanol. Tissues were sliced into 5-μm sections. General histology was performed using hematoxylin and eosin (H&E) (Merck, Rayway, N.J., USA).
as §2

Substance	tear volume (tear production) (Murine dry eye model [2])	myeloma RPMI 8226 cell viability (MTT assay) (myeloma RPMI 8226 cell)	reduction in mean corneal fluorescein staining score compared with vehicle treated control mice (Murine dry eye model [3])	further results
NH2-(D-Asp)-Ile-Thr-Tyr-Val-Arg-Leu-Lys-Phe-COOH ([dD]ITYVRLKF; not fully specified (N-terminus, C-terminus); printed as NH2-(D-Asp)-Ile-Thr-Tyr-Val-Arg-Leu-Lys-Phe-COOH) [9-mer DD, 9-mer analogue, aspartate replaced by D-form aspartate]				hyperproliferation of keratinocytes, BrdU-positive cells in the epidermis (labeling index) [1]: 23.3±2.5%
NH2-Ala-Ile-Thr-Tyr-Val-Arg-Leu-Lys-Phe-COOH (AITYVRLKF; not fully specified (N-terminus, C-terminus); printed as NH2-Ala-Ile-Thr-Tyr-Val-Arg-Leu-Lys-Phe-COOH) [9-mer Da, 9-mer analogue, aspartate replaced by alanine]	significantly increased	sustain part of the inhibitory activity	about 3 fold	
NH2-Asp-Ala-Thr-Tyr-Val-Arg-Leu-Lys-Phe-COOH (DATYVRLKF; not fully specified (N-terminus, C-terminus); printed as NH2-Asp-Ala-Thr-Tyr-Val-Arg-Leu-Lys-Phe-COOH) [9-mer Ia, 9-mer analogue, isoleucine replaced by alanine]		loss of the inhibitory activity		
NH2-Asp-Ile-Ala-Tyr-Val-Arg-Leu-Lys-Phe-COOH (DIAYVRLKF; not fully specified (N-terminus, C-terminus); printed as NH2-Asp-Ile-Ala-Tyr-Val-Arg-Leu-Lys-Phe-COOH) [9-mer Ta, 9-mer analogue, threonine replaced by alanine]		loss of the inhibitory activity		
NH2-Asp-Ile-Thr-Ala-Val-Arg-Leu-Lys-Phe-COOH (DITAVRLKF; not fully specified (N-terminus, C-terminus); printed as NH2-Asp-Ile-Thr-Ala-Val-Arg-Leu-Lys-Phe-COOH) [9-mer Ya, 9-mer analogue, tyrosine replaced by alanine]		loss of the inhibitory activity		
NH2-Asp-Ile-Thr-Tyr-Ala-Arg-Leu-Lys-Phe-COOH (DITYARLKF; not fully specified (N-terminus, C-terminus); printed as NH2-Asp-Ile-Thr-Tyr-Ala-Arg-Leu-Lys-Phe-COOH) [9-mer Va, 9-mer analogue, valine replaced by alanine]	significantly increased	sustain part of the inhibitory activity	about 3 fold	
NH2-Asp-Ile-Thr-Tyr-Val-Ala-Leu-Lys-Phe-COOH (DITYVALKF; not fully specified (N-terminus, C-terminus); printed as NH2-Asp-Ile-Thr-Tyr-Val-Ala-Leu-Lys-Phe-COOH) [9-mer Ra, 9-mer analogue, arginine replaced by alanine]		loss of the inhibitory activity		
NH2-Asp-Ile-Thr-Tyr-Val-Arg-Ala-Lys-Phe-COOH (DITYVRAKF; not fully specified (N-terminus, C-terminus); printed as NH2-Asp-Ile-Thr-Tyr-Val-Arg-Ala-Lys-Phe-COOH) [9-mer La, 9-mer analogue, leucine replaced by alanine]		loss of the inhibitory activity		
NH2-Asp-Ile-Thr-Tyr-Val-Arg-Leu-Ala-Phe-COOH (DITYVRLAF; not fully specified (N-terminus, C-terminus); printed as NH2-Asp-Ile-Thr-Tyr-Val-Arg-Leu-Ala-Phe-COOH) [9-mer Ka, 9-mer analogue, lysine replaced by alanine]		loss of the inhibitory activity		
NH2-Asp-Ile-Thr-Tyr-Val-Arg-Leu-Lys-(D-Phe)-COOH (DITYVRLK[dF]; not fully specified (N-terminus, C-terminus); printed as NH2-Asp-Ile-Thr-Tyr-Val-Arg-Leu-Lys-(D-Phe)-COOH) [9-mer DF, 9-mer analogue, phenylalanine in D-form]	significantly increased		about 3 fold	hyperproliferation of keratinocytes, BrdU-positive cells in the epidermis (labeling index) [1]: 6.3±1.2%; acanthosis, quantified epidermal thickness [4]: 35.7±4.2 μm
NH2-Asp-Ile-Thr-Tyr-Val-Arg-Leu-Lys-Ala-COOH (DITYVRLKA; not fully specified (N-terminus, C-terminus); printed as NH2-Asp-Ile-Thr-Tyr-Val-Arg-Leu-Lys-Ala-COOH) [9-mer Fa, 9-mer analogue, phenylalanine replaced by alanine]	significantly increased	sustain part of the inhibitory activity	about 3 fold	
NH2-Ile-Thr-Tyr-Val-Arg-Leu-Lys-Ala-COOH (ITYVRLKA; not fully specified (N-terminus, C-terminus); printed as NH2-Ile-Thr-Tyr-Val-Arg-Leu-Lys-Ala-COOH) [8-mer, control 8-mer peptide, aspartate residue of the 9-mer deleted]				corneal fluorescein stain (corneal damage), result in words (Murine dry eye model [3]; vs vehicle): no such effect
NH2-Lys-Ala-Phe-Asp-Ile-Thr-Tyr-Val-Arg-Leu-Lys-Phe-COOH (KAFDITYVRLKF; not fully specified (N-terminus, C-terminus); printed as NH2-Lys-Ala-Phe-Asp-Ile-Thr-Tyr-Val-Arg-Leu-Lys-Phe-COOH) [12-mer, 9-mer with additional 3 amino acid residues at the N-terminal]	significantly increased	successfully suppressed myeloma RPMI 8226 cell viability; also recorded: effective in suppressing myeloma cell viability; also recorded: more potent at lower dose	about 3 fold	hyperproliferation of keratinocytes, BrdU-positive cells in the epidermis (labeling index) [1]: 8.5±1.4%; acanthosis, quantified epidermal thickness [4]: 35.3±4.1 μm
